According to US20070167400A1, “Chitosan oligosaccharides and uses thereof” (priority 2001, published 2007):

Assays:
[1] = tested on: C57BL/6 mice spleen lymphocytes; assay: Stimulation of spleen lymphocytes by supernatants of treated peritoneal macrophages (MTS/PMS); assay type: cell-based
Method: FIG. 1 is a graphic illustrating the levels of stimulation of the C57BL/6 mice spleen lymphocytes incubated in vitro with macrophage supernatants treated with various concentrations of chitosan oligomers and glucosamine in (A) with and without the presence of peptidoglycan (B), as measured by the activity of the mitochondrial dehydrogenase on formazan salts (MTS/PMS) after 72 hrs of incubation (n=3).
The first experiment consisted in verifying if Product W was able to induce an […] effect. With this in mind, various concentrations of Product W (10 to 160 μg/ml) were incubated with peritoneal macrophages during a 24 hour period and the immunostimulating properties of the supernatants were measured on C57BL/6 mice spleen lymphocytes. The metabolic activity of spleen lymphocytes was measured by the level of Formazan salts transformation (mitochondrial dehydrogenase: MTS/PMS). As control, the dimer of glucosamine (product A), the trimer of glucosamine (product B) and a mixture of dimer-trimer in a ratio of 40:60 (mixture AB) was also studied and the results compared with those induced by glucosamine (product D). Positive controls of pro-inflammatory substances were added, such as lipopolysaccharides of E. coli (LPS) and peptidoglycan of S. Aureus (PEP).
In a second experiment, the macrophages were stimulated by peptidoglycan, (that has a stronger activation on the inflammatory response than LPS), and the capacity of products A, B, AB and W to decrease the stimulation of the lymphocytes was evaluated. […] The reduction induced by Product W, though slight, seems stronger than that induced by glucosamine (product D).

[2] = tested on: TNF-α production in C57BL/6 mice macrophages; assay: TNF-α production in macrophages (ELISA); assay type: cell-based; conditions: macrophages activated by PEP
Method: LPS and PEP were added as positive controls. The first cytokine studied was tumor necrosis factor (TNF-α) which is the first cytokine produced and induces the production of the other pro-inflammatory cytokines.

[3] = tested on: IL-6 production in mice macrophages C57BL/6; assay: IL-6 production in macrophages (ELISA); assay type: cell-based, C57BL/6 mice; conditions: non-activated macrophages
Method: FIG. 3 is a graphic illustrating the levels of IL-6 production in mice macrophages C57BL/6 treated in vitro with various concentrations of chitosan oligomers and glucosamine (A) with and without the presence of peptidoglycan (B), as measured by an ELISA test (n=3). […] LPS and PEP were added as positive controls. Non-activated macrophages were treated with products A, B and W and the IL-6 production was compared with the effects of glucosamine (product D). LPS and PEP were added as positive controls.

[4] = tested on: IL-10 production in mice macrophages C57BL/6; assay: IL-10 production in macrophages (ELISA); assay type: cell-based, C57BL/6 mice
Method: LPS and PEP were added as positive controls. We then verified the IL-10 production levels, a very powerful anti-inflammatory cytokine. Peritoneal macrophages are normally good producers of IL-10 since a normal intestinal system requires a high immunological tolerance to operate correctly. Non-activated macrophages were incubated with the various products, as well as LPS and PEP as positive controls, during 24 hours.

[5] = tested on: IL-1β release by human keratinocytes; assay: IL-1β release by human keratinocytes (ELISA), unstimulated, UVB or PMA stimulated; assay type: cell-based; conditions: dexamethasone 0.1 μM
Method: • Reference 1: (PGE2 induction): Indomethacin (Sigma 17378), tested at 1 μM (final) • Reference 2: (IL1β induction): Dexamethazone (Sigma D1756), tested at 0.1 μM (final) Treatments and Assays
Other plates were kept in the dark.
After thawing and centrifugation of the medium, the content in PGE2 was measured in ELISA with a R&D Systems kit (DE0100), according to the recommended protocol of the supplier. The IL1β content was measured in ELISA with a Immunotech kit (1042), according to the recommended protocol of the supplier.
The raw data were transformed and treated by the software PRISM® (Graph Pad Software). The intergroup comparisons were realized by analysis of variance (ANOVA), with the multiple comparison test DUNNETT.

[6] = tested on: prostaglandin E2 (PGE2) release by human keratinocytes; assay: PGE2 release by human keratinocytes (ELISA), unstimulated, UVB or PMA stimulated; assay type: cell-based
Method: The objectives of the present study are to evaluate the anti-inflammatory effects of two chitosan oligosaccharides (product […] and product […]) according to the present invention, and, more particularly on prostaglandin E2 (PGE2) and IL-1β release by human keratinocytes under a UVB irradiation. […] Other plates were kept in the dark. […] After thawing and centrifugation of the medium, the content in PGE2 was measured in ELISA with a R&D Systems kit (DE0100), according to the recommended protocol of the supplier. The IL1β content was measured in ELISA with a Immunotech kit (1042), according to the recommended protocol of the supplier. The raw data were transformed and treated by the software PRISM® (Graph Pad Software). The intergroup comparisons were realized by analysis of variance (ANOVA), with the multiple comparison test […].

[7] = supernatants of non-activated macrophages, 10 to 160 μg/ml, 24 hour
[8] = no stimulation, indomethacin 1 μM

N[C@H]1C(O)O[C@H](CO)[C@@H](O)[C@@H]1O (stereo partly drawn) [glucosamine]
effect on lymphocyte activity (in words), FIG. 1A [1, 7]: slightly increased the lymphocyte activity | effect on TNF-α (in words), FIG. 2B ([2]; 10 μg/ml): increased the level of TNF-α | effect on TNF-α (in words), FIG. 2B ([2]; highest concentration): induced a reduction | effect on IL-6 production (in words), FIG. 3A [3]: did not modify this cytokine | effect on IL-10 production (in words), FIG. 4B ([4]; macrophages activated by PEP): no detectable effect | effect on IL-10 production (in words), FIG. 4A ([4]; non-activated macrophages, 24 hours): slightly increased the IL-10 production

C[C@@H]1C[C@H]2[C@@H]3CCC4=CC(=O)C=C[C@]4(C)[C@@]3(F)[C@@H](O)C[C@]2(C)[C@@]1(O)C(=O)CO [dexamethasone, Dexamethazone]
IL1β ([5]; PMA stimulation 1 μg/ml): 0.2 pg/mL | IL1β % (of control) ([5]; PMA stimulation): 5% | IL-1β % (of control) ([5]; no stimulation): 8%

N[C@H]1[C@H](O[C@H]2[C@H](O)[C@@H](N)C(O)O[C@@H]2CO)O[C@H](CO)[C@@H](O)[C@@H]1O (stereo partly drawn) [Product A]
effect on lymphocyte activity (in words), FIG. 1A ([1]; non-activated macrophages, 80 μg/ml): slight increase | effect on lymphocyte activity (in words), FIG. 1A ([1]; non-activated macrophages, 10 μ/ml): slight decrease | effect on IL-6 production (in words), FIG. 3A [3]: slightly decrease

COc1ccc2c(c1)c(CC(=O)O)c(C)n2C(=O)c1ccc(Cl)cc1 [Indomethacin]
effect on PGE2 release induced by PMA (in words) ([6]; PMA stimulation): totally blocked the PGE2 production/release | PGE2 ([6]; PMA stimulation 1 μg/ml, indomethacin 1 μM): 10 pg/mL | PGE2 % (of control) ([6]; PMA stimulation, indomethacin 1 μM): 0% | effect on PGE2 release (in words) ([6]; UVB stimulation): significantly reduced the PGE2 release | PGE2 ([6]; UVB stimulation 250 mJ/cm2, indomethacin 1 μM): 7.3 pg/mL | PGE2 % (of control) ([6]; UVB stimulation, indomethacin 1 μM): 22% | PGE2 [6, 8]: 0.9 pg/mL | PGE2 % (of control) [6, 8]: 8% | effect on basal PGE2 production/release (in words) [6, 8]: apparently totally blocked the production/release of this basal level

N[C@H]1[C@H](O[C@H]2[C@H](O)[C@@H](N)[C@H](O[C@H]3[C@H](O)[C@@H](N)C(O)O[C@@H]3CO)O[C@@H]2CO)O[C@H](CO)[C@@H](O)[C@@H]1O (stereo partly drawn) [Product B]
effect on lymphocyte stimulation induced by PEP (in words), FIG. 1B ([1]; macrophages stimulated by peptidoglycan (PEP)): with the weakest concentration tested was able to decrease this stimulation | effect on lymphocyte activity (in words), FIG. 1A [1, 7]: slight stimulation with the smallest doses only | effect on IL-6 production (in words), FIG. 3A [3]: increase
